Experimental data from ChEMBL document CHEMBL1201861, “Genomics of Drug Sensitity in Cancer screening data, Wellcome Trust Sanger Institute”.

What was measured:
Assay in all cases: cells
SNU1 = assay type: functional, cell-based; details: Homo sapiens;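 also: growth inhibition of human NCI-SNU-1 cells, measured with a cell viability assay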
Description: SANGER: Inhibition of human NCI-SNU-1 cell growth in a cell viability assay.

COLO-829 = assay type: functional, cell-based, Homo sapiens; details: Homo sapiens, COLO-829
Description: SANGER: Inhibition of human COLO-829 cell growth in a cell viability assay.

SNB-75 = assay type: functional, cell-based, Homo sapiens; details: Homo sapiens, SNB-75;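 also: cell viability assay measuring growth inhibition of human SNB-75 cells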
Description: SANGER: Inhibition of human SNB75 cell growth in a cell viability assay.

KOSC-2 = assay type: functional, cell-based, Homo sapiens; details: Homo sapiens, KOSC-2;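 also: growth inhibition of KOSC-2 cells, read out by a cell viability assay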
ES1 = assay type: functional, cell-based, Homo sapiens; details: Homo sapiens, ES1;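 also: growth inhibition of ES1 cells, read out with a cell viability assay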
Description: SANGER: Inhibition of human ES1 cell growth in a cell viability assay.

HuP-T3 = assay type: functional, cell-based, Homo sapiens; details: Homo sapiens, HuP-T3;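 also: HuP-T3 cell growth inhibition, read out with a cell viability assay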
Description: SANGER: Inhibition of human HuP-T3 cell growth in a cell viability assay.

NCI-H1755 = assay type: functional, cell-based, Homo sapiens; details: Homo sapiens, NCI-H1755;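 also: cell viability readout used to measure growth inhibition of NCI-H1755 cells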
Description: SANGER: Inhibition of human NCI-H1755 cell growth in a cell viability assay.

EW-16 = assay type: functional, cell-based, Homo sapiens; details: Homo sapiens, EW-16;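 also: growth inhibition of human EW-16 cells, read out as cell viability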
Description: SANGER: Inhibition of human EW-16 cell growth in a cell viability assay.

NCI-H1092 = assay type: functional, cell-based; details: Homo sapiens;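 also: cell growth inhibition measured with a cell viability assay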
Description: SANGER: Inhibition of human NCI-H1092 cell growth in a cell viability assay.

DSH1 = assay type: functional, cell-based, Homo sapiens; details: Homo sapiens, DSH1;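 also: growth inhibition of human DSH1 cells, measured with a cell viability readout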
Description: SANGER: Inhibition of human DSH1 cell growth in a cell viability assay.

RPMI-8866 = assay type: functional, cell-based; details: Homo sapiens
Description: SANGER: Inhibition of human RPMI-8866 cell growth in a cell viability assay.

A704 = assay type: functional, cell-based, Homo sapiens; details: Homo sapiens, A704;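 also: growth inhibition of human A704 cells, read out with a cell viability assay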
Description: SANGER: Inhibition of human A704 cell growth in a cell viability assay.

639-V = assay type: functional, cell-based, Homo sapiens; details: Homo sapiens, 639-V;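 also: growth inhibition of 639-V cells, read out with a cell viability assay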
Description: SANGER: Inhibition of human 639-V cell growth in a cell viability assay.

S-117 = assay type: functional, cell-based, Homo sapiens; details: Homo sapiens, S-117
Description: SANGER: Inhibition of human S-117 cell growth in a cell viability assay.

IST-MEL1 = assay type: functional, cell-based, Homo sapiens; details: Homo sapiens, IST-MEL1;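 also: growth inhibition of the cell line, read out with a cell viability assay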
Description: SANGER: Inhibition of human IST-MEL1 cell growth in a cell viability assay.

769-P = assay type: functional, cell-based, Homo sapiens; details: Homo sapiens, 769-P
Description: SANGER: Inhibition of human 769-P cell growth in a cell viability assay.

T98G = assay type: functional, cell-based, Homo sapiens; details: Homo sapiens, T98G;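 also: growth inhibition of T98G cells, read out by a cell viability assay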
Description: SANGER: Inhibition of human T98G cell growth in a cell viability assay.

BB65-RCC = assay type: functional, cell-based, Homo sapiens; details: Homo sapiens, BB65-RCC;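 also: growth inhibition of the cell line, measured with a cell viability assay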
Description: SANGER: Inhibition of human BB65-RCC cell growth in a cell viability assay.

RH-1 = assay type: functional, cell-based, Homo sapiens; details: Homo sapiens, RH-1;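 also: growth inhibition of human RH-1 cells, read out with a cell viability assay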
A 172 = assay type: functional, cell-based, Homo sapiens; details: Homo sapiens, A 172;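 also: growth inhibition of A172 cells, measured with a cell viability readout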
CHL-1 = assay type: functional, cell-based, Homo sapiens; details: Homo sapiens, CHL-1;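 also: cell growth inhibition, read out with a cell viability assay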
Description: SANGER: Inhibition of human CHL-1 cell growth in a cell viability assay.

J-RT3-T3-5 = assay type: functional, cell-based; details: Homo sapiens;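 also: cell viability assay measuring growth inhibition of human J-RT3-T3-5 cells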
Description: SANGER: Inhibition of human J-RT3-T3-5 cell growth in a cell viability assay.

JVM-2 = assay type: functional, cell-based; details: Homo sapiens;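 also: growth inhibition of JVM-2 cells determined by a cell viability assay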
Description: SANGER: Inhibition of human JVM-2 cell growth in a cell viability assay.

OE33 = assay type: functional, cell-based, Homo sapiens; details: Homo sapiens, OE33;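 also: growth inhibition of human OE33 cells, measured by a cell viability assay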
Description: SANGER: Inhibition of human OE33 cell growth in a cell viability assay.

RO82-W-1 = assay type: functional, cell-based, Homo sapiens; details: Homo sapiens, RO82-W-1;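 also: growth inhibition of human RO82-W-1 cells, measured with a cell viability assay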
Description: SANGER: Inhibition of human RO82-W-1 cell growth in a cell viability assay.

D-392MG = assay type: functional, cell-based, Homo sapiens; details: Homo sapiens, D-392MG
C32 = assay type: functional, cell-based, Homo sapiens; details: Homo sapiens, C32;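 also: cell viability assay, with IC50 reflecting inhibition of C32 cell growth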
Description: SANGER: Inhibition of human C32 cell growth in a cell viability assay.

SK-OV-3 = assay type: functional, cell-based, Homo sapiens; details: Homo sapiens, SK-OV-3;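 also: growth inhibition of SK-OV-3 human cells, read out with a cell viability assay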
Description: SANGER: Inhibition of human SK-OV-3 cell growth in a cell viability assay.

HL-60 = assay type: functional, cell-based; details: Homo sapiens;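 also: growth inhibition of human HL-60 cells, read out with a cell viability assay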
Description: SANGER: Inhibition of human HL-60 cell growth in a cell viability assay.

SW1990 = assay type: functional, cell-based, Homo sapiens; details: Homo sapiens, SW1990;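 also: cell growth inhibition determined with a viability assay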
Description: SANGER: Inhibition of human SW1990 cell growth in a cell viability assay.

MHH-ES-1 = assay type: functional, cell-based, Homo sapiens; details: Homo sapiens, MHH-ES-1;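 also: cell growth inhibition measured by a cell viability assay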
Description: SANGER: Inhibition of human MHH-ES-1 cell growth in a cell viability assay.

NCI-H727 = assay type: functional, cell-based, Homo sapiens; details: Homo sapiens, NCI-H727;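 also: growth inhibition of human NCI-H727 cells, read out with a cell viability assay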
Description: SANGER: Inhibition of human NCI-H727 cell growth in a cell viability assay.

Panc1005 = assay type: functional, cell-based, Homo sapiens; details: Homo sapiens, Panc1005;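 also: growth inhibition of human PANC-10-05 cells, measured by a cell viability assay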
Description: SANGER: Inhibition of human PANC-10-05 cell growth in a cell viability assay.

Daoy = assay type: functional, cell-based, Homo sapiens; details: Homo sapiens, Daoy;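 also: daoy cell growth inhibition, read out as cell viability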
Description: SANGER: Inhibition of human Daoy cell growth in a cell viability assay.

LAN-6 = assay type: functional, cell-based, Homo sapiens; details: Homo sapiens, LAN-6;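 also: growth inhibition of LAN-6 cells, determined with a cell viability assay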
Description: SANGER: Inhibition of human LAN-6 cell growth in a cell viability assay.

KYSE-520 cell line = assay type: functional, cell-based, Homo sapiens; details: Homo sapiens, KYSE-520;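 also: growth inhibition of human KYSE-520 cells, read out with a viability assay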
Description: SANGER: Inhibition of human KYSE-520 cell growth in a cell viability assay.

SCC-25 = assay type: functional, cell-based, Homo sapiens; details: Homo sapiens, SCC-25;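 also: growth inhibition of SCC-25 cells, measured with a cell viability assay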
NCI-H1650 = assay type: functional, cell-based, Homo sapiens; details: Homo sapiens, NCI-H1650;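 also: growth inhibition of human NCI-H1650 cells measured by a cell viability assay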
Description: SANGER: Inhibition of human NCI-H1650 cell growth in a cell viability assay.

ONS-76 = assay type: functional, cell-based, Homo sapiens; details: Homo sapiens, ONS-76;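 also: growth inhibition of human ONS-76 cells, read out with a cell viability assay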
Description: SANGER: Inhibition of human ONS-76 cell growth in a cell viability assay.

UACC-62 = assay type: functional, cell-based, Homo sapiens; details: Homo sapiens, UACC-62;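 also: growth inhibition of human UACC-62 cells, read out by a cell viability assay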
Description: SANGER: Inhibition of human UACC-62 cell growth in a cell viability assay.

BCPAP = assay type: functional, cell-based, Homo sapiens; details: Homo sapiens, BCPAP;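 also: growth inhibition of BCPAP cells, read out in a cell viability assay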
Description: SANGER: Inhibition of human BCPAP cell growth in a cell viability assay.

CAS-1 = assay type: functional, cell-based, Homo sapiens; details: Homo sapiens, CAS-1;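 also: growth inhibition of CAS-1 cells, measured with a cell viability assay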
HCC1937 = assay type: functional, cell-based, Homo sapiens; details: Homo sapiens, HCC1937;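 also: growth inhibition measured with a cell viability read-out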
Description: SANGER: Inhibition of human HCC1937 cell growth in a cell viability assay.

SK-MEL-24 = assay type: functional, cell-based; details: Homo sapiens;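 also: growth inhibition read out by a cell viability assay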
Description: SANGER: Inhibition of human SK-MEL-24 cell growth in a cell viability assay.

HEL = assay type: functional, cell-based, Homo sapiens; details: Homo sapiens, HEL;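 also: growth inhibition of HEL cells, read out with a cell viability assay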
Description: SANGER: Inhibition of human HEL cell growth in a cell viability assay.

LN-405 = assay type: functional, cell-based, Homo sapiens; details: Homo sapiens, LN-405
Description: SANGER: Inhibition of human LN-405 cell growth in a cell viability assay.

UACC-257 = assay type: functional, cell-based, Homo sapiens; details: Homo sapiens, UACC-257
Description: SANGER: Inhibition of human UACC-257 cell growth in a cell viability assay.

DU-4475 = assay type: functional, cell-based; details: Homo sapiens
Description: SANGER: Inhibition of human DU-4475 cell growth in a cell viability assay.

D-263MG = assay type: functional, cell-based, Homo sapiens; details: Homo sapiens, D-263MG
Description: SANGER: Inhibition of human D-263MG cell growth in a cell viability assay.

HT-144 = assay type: functional, cell-based, Homo sapiens; details: Homo sapiens, HT-144
Description: SANGER: Inhibition of human HT-144 cell growth in a cell viability assay.

ABC-1 = assay type: functional, cell-based, Homo sapiens; details: Homo sapiens, ABC-1;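 also: growth inhibition of human ABC-1 cells, read out by a cell viability assay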
Description: SANGER: Inhibition of human ABC-1 cell growth in a cell viability assay.

Compound: Cc1ccc(Nc2nccc(N(C)c3ccc4c(C)n(C)nc4c3)n2)cc1S(N)(=O)=O [PAZOPANIB]
- IC50 (SNU1): > 8 µM
- IC50 (COLO-829): > 8 µM
- IC50 (SNB-75): 6.57 µM
- IC50 (KOSC-2): > 8 µM
- IC50 (ES1): > 8 µM
- IC50 (HuP-T3): > 8 µM
- IC50 (NCI-H1755): > 8 µM
- IC50 (EW-16): > 8 µM
- IC50 (NCI-H1092): > 8 µM
- IC50 (DSH1): > 8 µM
- IC50 (RPMI-8866): > 8 µM
- IC50 (A704): 1.6 µM
- IC50 (639-V): > 8 µM
- IC50 (S-117): 7.58 µM
- IC50 (IST-MEL1): > 8 µM
- IC50 (769-P): > 8 µM
- IC50 (T98G): > 8 µM
- IC50 (BB65-RCC): > 8 µM
- IC50 (RH-1): > 8 µM
- IC50 (A 172): 3.74 µM
- IC50 (CHL-1): > 8 µM
- IC50 (J-RT3-T3-5): > 8 µM
- IC50 (JVM-2): > 8 µM
- IC50 (OE33): > 8 µM
- IC50 (RO82-W-1): > 8 µM
- IC50 (D-392MG): > 8 µM
- IC50 (C32): > 8 µM
- IC50 (SK-OV-3): > 8 µM
- IC50 (HL-60): > 8 µM
- IC50 (SW1990): > 8 µM
- IC50 (MHH-ES-1): > 8 µM
- IC50 (NCI-H727): 5.41 µM
- IC50 (Panc1005): > 8 µM
- IC50 (Daoy): 4.78 µM
- IC50 (LAN-6): > 8 µM
- IC50 (KYSE-520 cell line): > 8 µM
- IC50 (SCC-25): > 8 µM
- IC50 (NCI-H1650): > 8 µM
- IC50 (ONS-76): > 8 µM
- IC50 (UACC-62): > 8 µM
- IC50 (BCPAP): > 8 µM
- IC50 (CAS-1): 7.76 µM
- IC50 (HCC1937): > 8 µM
- IC50 (SK-MEL-24): > 8 µM
- IC50 (HEL): > 8 µM
- IC50 (LN-405): > 8 µM
- IC50 (UACC-257): > 8 µM
- IC50 (DU-4475): > 8 µM
- IC50 (D-263MG): > 8 µM
- IC50 (HT-144): > 8 µM
- IC50 (ABC-1): > 8 µM

Compound: COC(=O)CNC(=O)C(=O)OC
- IC50 (SNU1): > 4000 µM
- IC50 (COLO-829): 111 µM
- IC50 (SNB-75): 438 µM
- IC50 (KOSC-2): > 4000 µM
- IC50 (ES1): 1260 µM
- IC50 (HuP-T3): 404 µM
- IC50 (NCI-H1755): 2740 µM
- IC50 (EW-16): 377 µM
- IC50 (NCI-H1092): 1200 µM
- IC50 (DSH1): 96.2 µM
- IC50 (RPMI-8866): > 4000 µM
- IC50 (A704): 1140 µM
- IC50 (639-V): 1520 µM
- IC50 (S-117): 3860 µM
- IC50 (IST-MEL1): 573 µM
- IC50 (769-P): > 4000 µM
- IC50 (T98G): 666 µM
- IC50 (BB65-RCC): 2380 µM
- IC50 (RH-1): 1360 µM
- IC50 (A 172): 566 µM
- IC50 (CHL-1): 917 µM
- IC50 (J-RT3-T3-5): 1740 µM
- IC50 (JVM-2): > 4000 µM
- IC50 (OE33): 421 µM
- IC50 (RO82-W-1): > 4000 µM
- IC50 (D-392MG): 1570 µM
- IC50 (C32): > 4000 µM
- IC50 (SK-OV-3): 798 µM
- IC50 (HL-60): 157 µM
- IC50 (SW1990): 441 µM
- IC50 (MHH-ES-1): 115 µM
- IC50 (NCI-H727): > 4000 µM
- IC50 (Panc1005): 264 µM
- IC50 (Daoy): 247 µM
- IC50 (LAN-6): 2080 µM
- IC50 (KYSE-520 cell line): 613 µM
- IC50 (SCC-25): 1230 µM
- IC50 (NCI-H1650): 329 µM
- IC50 (ONS-76): 241 µM
- IC50 (UACC-62): > 4000 µM
- IC50 (BCPAP): 209 µM
- IC50 (CAS-1): 264 µM
- IC50 (HCC1937): 893 µM
- IC50 (SK-MEL-24): > 4000 µM
- IC50 (HEL): 197 µM
- IC50 (LN-405): 1610 µM
- IC50 (UACC-257): 1090 µM
- IC50 (DU-4475): 899 µM
- IC50 (D-263MG): 410 µM
- IC50 (HT-144): 177 µM
- IC50 (ABC-1): 447 µM

Compound: CC(=O)O[C@@]12CO[C@@H]1C[C@H](O)[C@@]1(C)C(=O)[C@H](O)C3=C(C)[C@@H](OC(=O)[C@H](O)[C@@H](NC(=O)OC(C)(C)C)c4ccccc4)C[C@@](O)([C@@H](OC(=O)c4ccccc4)[C@H]21)C3(C)C [DOCETAXEL]
- IC50 (SNU1): 0.00197 µM
- IC50 (COLO-829): 0.00725 µM
- IC50 (SNB-75): 0.00381 µM
- IC50 (KOSC-2): 0.000255 µM
- IC50 (ES1): 0.00077 µM
- IC50 (HuP-T3): > 0.01 µM
- IC50 (NCI-H1755): 0.00624 µM
- IC50 (EW-16): 0.00135 µM
- IC50 (NCI-H1092): > 0.01 µM
- IC50 (DSH1): > 0.01 µM
- IC50 (RPMI-8866): 0.00281 µM
- IC50 (A704): > 0.01 µM
- IC50 (639-V): 0.000647 µM
- IC50 (S-117): 0.00486 µM
- IC50 (IST-MEL1): 0.00225 µM
- IC50 (769-P): > 0.01 µM
- IC50 (T98G): 0.00117 µM
- IC50 (BB65-RCC): 0.00308 µM
- IC50 (RH-1): 0.000386 µM
- IC50 (A 172): 0.00163 µM
- IC50 (CHL-1): 0.000958 µM
- IC50 (J-RT3-T3-5): 0.00235 µM
- IC50 (JVM-2): > 0.01 µM
- IC50 (OE33): > 0.01 µM
- IC50 (RO82-W-1): 0.00531 µM
- IC50 (D-392MG): > 0.01 µM
- IC50 (C32): > 0.01 µM
- IC50 (SK-OV-3): > 0.01 µM
- IC50 (HL-60): 0.00359 µM
- IC50 (SW1990): > 0.01 µM
- IC50 (MHH-ES-1): 0.0007 µM
- IC50 (NCI-H727): > 0.01 µM
- IC50 (Panc1005): > 0.01 µM
- IC50 (Daoy): 0.0007 µM
- IC50 (LAN-6): > 0.01 µM
- IC50 (KYSE-520 cell line): 0.007 µM
- IC50 (SCC-25): 0.00068 µM
- IC50 (NCI-H1650): > 0.01 µM
- IC50 (ONS-76): 0.00322 µM
- IC50 (UACC-62): 0.0033 µM
- IC50 (BCPAP): 0.000947 µM
- IC50 (CAS-1): > 0.01 µM
- IC50 (HCC1937): > 0.01 µM
- IC50 (SK-MEL-24): > 0.01 µM
- IC50 (HEL): > 0.01 µM
- IC50 (LN-405): 0.00482 µM
- IC50 (UACC-257): > 0.01 µM
- IC50 (DU-4475): 0.00302 µM
- IC50 (D-263MG): 0.000947 µM
- IC50 (HT-144): 0.000157 µM
- IC50 (ABC-1): > 0.01 µM
